Assay results: the NIST ThermoML archive (doi:10.1021/je020110g)
Numbers after ± are expanded uncertainties.

Columns and labels:
[1] = Liquid
[2] = excess molar enthalpy (molar enthalpy of mixing); xn = mol fraction of the nth substance listed; settings: 298.15 K, 101.3 kPa, Liquid, Flow calorimetry

CCCCBr [1-bromobutane]
[1]
Settings | vapor or sublimation pressure [kPa]
278.15 K | 1.86 ± 0.014
283.15 K | 2.48 ± 0.015
288.15 K | 3.265 ± 0.016
293.15 K | 4.261 ± 0.017
298.15 K | 5.506 ± 0.018
303.15 K | 7.039 ± 0.02
308.15 K | 8.899 ± 0.023
313.15 K | 11.15 ± 0.026
318.15 K | 13.87 ± 0.03
323.15 K | 17.09 ± 0.035

CCCCBr [1-bromobutane] + CC(C)CO
[2]
Settings | excess molar enthalpy [kcal/mol]
x2 = 0.0421 | 0.127 ± 0.00287
x2 = 0.0942 | 0.203 ± 0.0043
x2 = 0.1932 | 0.269 ± 0.00574
x2 = 0.2938 | 0.298 ± 0.00645
x2 = 0.3468 | 0.304 ± 0.00645
x2 = 0.3957 | 0.304 ± 0.00645
x2 = 0.4476 | 0.298 ± 0.00645
x2 = 0.499 | 0.288 ± 0.00621
x2 = 0.6 | 0.258 ± 0.0055
x2 = 0.7021 | 0.213 ± 0.00454
x2 = 0.8052 | 0.152 ± 0.00335
x2 = 0.906 | 0.0789 ± 0.00167
x2 = 0.9587 | 0.038 ± 0.000956

CCCCBr [1-bromobutane] + CCC(C)O
[2]
Settings | excess molar enthalpy [kcal/mol]
x2 = 0.0424 | 0.124 ± 0.00263
x2 = 0.0948 | 0.221 ± 0.00478
x2 = 0.1942 | 0.306 ± 0.00645
x2 = 0.2951 | 0.35 ± 0.00741
x2 = 0.3482 | 0.363 ± 0.00765
x2 = 0.3973 | 0.369 ± 0.00789
x2 = 0.4492 | 0.366 ± 0.00789
x2 = 0.5006 | 0.36 ± 0.00765
x2 = 0.6015 | 0.333 ± 0.00717
x2 = 0.7035 | 0.285 ± 0.00621
x2 = 0.8062 | 0.212 ± 0.00454
x2 = 0.9066 | 0.117 ± 0.00263
x2 = 0.959 | 0.0588 ± 0.00143

CC(C)CO [2-methyl-1-propanol]
[1]
Settings | vapor or sublimation pressure [kPa]
278.15 K | 0.335 ± 0.011
283.15 K | 0.505 ± 0.011
288.15 K | 0.739 ± 0.012
293.15 K | 1.057 ± 0.013
298.15 K | 1.501 ± 0.014
303.15 K | 2.133 ± 0.014
308.15 K | 2.956 ± 0.015
313.15 K | 4.026 ± 0.016
318.15 K | 5.444 ± 0.018
323.15 K | 7.237 ± 0.02

CCC(C)O (stereo unspecified) [butan-2-ol]
[1]
Settings | vapor or sublimation pressure [kPa]
278.15 K | 0.519 ± 0.011
283.15 K | 0.78 ± 0.012
288.15 K | 1.137 ± 0.013
293.15 K | 1.648 ± 0.014
298.15 K | 2.324 ± 0.014
303.15 K | 3.256 ± 0.016
308.15 K | 4.462 ± 0.017
313.15 K | 6.048 ± 0.019
318.15 K | 8.105 ± 0.022
323.15 K | 10.71 ± 0.025
